Reference: patent publication US9708314B2, “Heterocyclic amide compound” (NISSAN CHEMICAL INDUSTRIES, LTD., priority 2013, dated 2017)

How the values were obtained:
Type in all cases: in vivo
[1] = system: Leptochloa chinensis; experiment: Test Example 3: herbicidal effect by application to foliage (Wagner pot, water depth 0.1-0.5 cm); conditions: Nineteenth Table; application to foliage; application herbicide amount 320 g/ha
Summary of the method: (§1)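 Plants are raised 14 days from seed in flooded-surface Wagner pots at 25–30 °C, sprayed on stems and leaves with diluted emulsion at a predetermined rate, and rated three weeks on using a 0–5 herbicidal-ratio scale (5 ≥90%).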

[2] = system: Echinochloa crus-galli var. crus-galli; experiment: as above; conditions: Nineteenth Table; application to foliage; application herbicide amount 320 g/ha
Summary of the method: as §1

[3] = system: Cyperus difformis; experiment: as above; conditions: Nineteenth Table; application to foliage; application herbicide amount 320 g/ha
Summary of the method: as §1

[4] = system: directly sowed Oryza sativa; experiment: Test Example 3: effect on crop by application to foliage (Wagner pot, water depth 0.1-0.5 cm); conditions: Nineteenth Table; application to foliage; application herbicide amount 320 g/ha
Summary of the method: as §1

[5] = system: Monochoria vaginalis; experiment: Test Example 1: herbicidal activity, application before weed generation in submerged conditions; conditions: Application herbicide amount 320 g/ha; Seventeenth Table
Description: (§2) [Test Example 1] Herbicidal Activity Test by Application Before Weed Generation in Submerged Conditions After alluvial soil was placed into 1/10000 are of Wagner pot, water was poured and mixed to form a submerged condition having a water depth of 4 cm. Seeds of Echinochloa oryzacola Vasing., Scirpus juncoides, and Monochoria vaginalis were sowed in a mixed manner in the above pot and thereafter 2.5 leaf stage Oryza sativa seedling was transplanted. On the day of sowing seeds, the emulsion agent containing the compound of the present invention prepared in accordance with Formulation Example 2 was diluted with water so as to be a predetermined herbicide amount and the diluted compound was applied to the surface of the water. The pot was placed in a greenhouse of 25° C. to 30° C. to grow plant. Three weeks after the herbicide application, effects on each plant were investigated in accordance with the following criteria. Criteria 5 Herbicidal ratio of 90% or more (almost completely withered) 4 Herbicidal ratio of 70% or more and less than 90% 3 Herbicidal ratio of 40% or more and less than 70% 2 Herbicidal ratio of 20% or more and less than 40% 1 Herbicidal ratio of 5% or more and less than 20% 0 Herbicidal ratio of 5% or less (almost no effect) A: Echinochloa oryzicola Vasing., B: Scirpus juncoides, C: Monochoria vaginalis, D: Leptochloa chinensis, E: Cyperus difformis, F: Digitaria ciliaris, G: Setaria viridis, H: Echinochloa crus-galli var. crus-galli, I: Avena fatua, J: Alopecurus myosuroides, K: Lolium multiflorum Lam., L: Apera spica-venti., M: Abutilon theophrasti, N: Amaranthus retroflexus, O: Chenopodium album, P: Stellaria media, Q: Galium spurium, R: Veronica persica, a: transplanted Oryza sativa, b: directly sowed Oryza sativa, c: Zea mays, d: Glycine max, e: Triticum aestivum, f: Beta vulgaris ssp. vulgaris, and g: Brassica campestris L. The application herbicide amount (g/ha) means an amount that a concentration is adjusted so that, when an application amount is converted into per hectare (1 ha), the herbicide is applied by the number of grams (g) of the described value.

[6] = system: Echinochloa oryzacola Vasing.; experiment: as above; conditions: Application herbicide amount 320 g/ha; Seventeenth Table
Description: as §2

[7] = system: Scirpus juncoides; experiment: as above; conditions: Application herbicide amount 320 g/ha; Seventeenth Table
Description: as §2

[8] = system: transplanted Oryza sativa; experiment: Test Example 1: effect on crop, application before weed generation in submerged conditions; conditions: Application herbicide amount 320 g/ha; Seventeenth Table
Description: as §2

| Compound | D (herbicidal effect grade) [1] | H (herbicidal effect grade) [2] | E (herbicidal effect grade) [3] | b (effect on crop grade) [4] | C: Monochoria vaginalis (herbicidal effect grade) [5] | A: Echinochloa oryzicola Vasing. (herbicidal effect grade) [6] | B: Scirpus juncoides (herbicidal effect grade) [7] | a: transplanted Oryza sativa (effect on crop grade) [8] |
| --- | --- | --- | --- | --- | --- | --- | --- | --- |
| COCC[S+]([O-])c1nnc2c(C(=O)Nc3nnc(C)o3)ccc(C(F)(F)F)n12 (centres unmarked) [1-073] | 5 (Herbicidal ratio of 90% or more (almost completely withered)) | 5 (Herbicidal ratio of 90% or more (almost completely withered)) | 5 (Herbicidal ratio of 90% or more (almost completely withered)) | 4 (Herbicidal ratio of 70% or more and less than 90%) | 2 (Herbicidal ratio of 20% or more and less than 40%) | 4 (Herbicidal ratio of 70% or more and less than 90%) | 3 (Herbicidal ratio of 40% or more and less than 70%) | 3 (Herbicidal ratio of 40% or more and less than 70%) |
| Cc1nnc(NC(=O)c2ccc(C(F)(F)F)n3c(C(C)S(C)(=O)=O)nnc23)o1 (centres unmarked) [1-080] | 5 (Herbicidal ratio of 90% or more (almost completely withered)) | 5 (Herbicidal ratio of 90% or more (almost completely withered)) | 5 (Herbicidal ratio of 90% or more (almost completely withered)) | 5 (Herbicidal ratio of 90% or more (almost completely withered)) | 4 (Herbicidal ratio of 70% or more and less than 90%) | 5 (Herbicidal ratio of 90% or more (almost completely withered)) | 4 (Herbicidal ratio of 70% or more and less than 90%) | 4 (Herbicidal ratio of 70% or more and less than 90%) |
| COc1cc(OC)cc(-c2nnc3c(C(=O)Nc4nnc(C)o4)ccc(C(F)(F)F)n23)c1 [1-070] | 5 (Herbicidal ratio of 90% or more (almost completely withered)) | 4 (Herbicidal ratio of 70% or more and less than 90%) | 5 (Herbicidal ratio of 90% or more (almost completely withered)) | 0 (Herbicidal ratio of 5% or less (almost no effect)) | 5 (Herbicidal ratio of 90% or more (almost completely withered)) | 5 (Herbicidal ratio of 90% or more (almost completely withered)) | 5 (Herbicidal ratio of 90% or more (almost completely withered)) | 3 (Herbicidal ratio of 40% or more and less than 70%) |
| CCC[S+]([O-])c1nnc2c(C(=O)Nc3nnc(C)o3)ccc(C(F)(F)F)n12 (centres unmarked) [1-092] | 5 (Herbicidal ratio of 90% or more (almost completely withered)) | 5 (Herbicidal ratio of 90% or more (almost completely withered)) | 5 (Herbicidal ratio of 90% or more (almost completely withered)) | 4 (Herbicidal ratio of 70% or more and less than 90%) | 4 (Herbicidal ratio of 70% or more and less than 90%) | 5 (Herbicidal ratio of 90% or more (almost completely withered)) | 5 (Herbicidal ratio of 90% or more (almost completely withered)) | 3 (Herbicidal ratio of 40% or more and less than 70%) |
| CC(C)c1nnc2c(C(=O)Nc3nnc(C(F)(F)F)o3)ccc(C(F)(F)F)n12 [1-100] | 5 (Herbicidal ratio of 90% or more (almost completely withered)) | 5 (Herbicidal ratio of 90% or more (almost completely withered)) | 4 (Herbicidal ratio of 70% or more and less than 90%) | 0 (Herbicidal ratio of 5% or less (almost no effect)) | 3 (Herbicidal ratio of 40% or more and less than 70%) | 4 (Herbicidal ratio of 70% or more and less than 90%) | 3 (Herbicidal ratio of 40% or more and less than 70%) | 0 (Herbicidal ratio of 5% or less (almost no effect)) |
| Cc1nnc(NC(=O)c2ccc(C(F)(F)F)n3c(SCC(C)C)nnc23)o1 [1-093] | 5 (Herbicidal ratio of 90% or more (almost completely withered)) | 4 (Herbicidal ratio of 70% or more and less than 90%) | 4 (Herbicidal ratio of 70% or more and less than 90%) | 1 (Herbicidal ratio of 5% or more and less than 20%) | 3 (Herbicidal ratio of 40% or more and less than 70%) | 5 (Herbicidal ratio of 90% or more (almost completely withered)) | 4 (Herbicidal ratio of 70% or more and less than 90%) | 0 (Herbicidal ratio of 5% or less (almost no effect)) |
| Cc1nnc(NC(=O)c2ccc(C(F)(F)F)n3c(N4CCOCC4)nnc23)o1 [1-096] | 5 (Herbicidal ratio of 90% or more (almost completely withered)) | 5 (Herbicidal ratio of 90% or more (almost completely withered)) | 4 (Herbicidal ratio of 70% or more and less than 90%) | 4 (Herbicidal ratio of 70% or more and less than 90%) | 4 (Herbicidal ratio of 70% or more and less than 90%) | 5 (Herbicidal ratio of 90% or more (almost completely withered)) | 4 (Herbicidal ratio of 70% or more and less than 90%) | 3 (Herbicidal ratio of 40% or more and less than 70%) |
| Cc1nnc(NC(=O)c2ccc(C(F)(F)F)n3c(N(C)C)nnc23)o1 [1-076] | 5 (Herbicidal ratio of 90% or more (almost completely withered)) | 5 (Herbicidal ratio of 90% or more (almost completely withered)) | 5 (Herbicidal ratio of 90% or more (almost completely withered)) | 3 (Herbicidal ratio of 40% or more and less than 70%) | 4 (Herbicidal ratio of 70% or more and less than 90%) | 5 (Herbicidal ratio of 90% or more (almost completely withered)) | 4 (Herbicidal ratio of 70% or more and less than 90%) | 3 (Herbicidal ratio of 40% or more and less than 70%) |
| Cc1nnc(NC(=O)c2ccc(C(F)(F)F)n3c(-c4cc(Cl)cc(Cl)c4)nnc23)o1 [1-071] | 3 (Herbicidal ratio of 40% or more and less than 70%) | 0 (Herbicidal ratio of 5% or less (almost no effect)) | 5 (Herbicidal ratio of 90% or more (almost completely withered)) | 0 (Herbicidal ratio of 5% or less (almost no effect)) | 4 (Herbicidal ratio of 70% or more and less than 90%) | 4 (Herbicidal ratio of 70% or more and less than 90%) | 5 (Herbicidal ratio of 90% or more (almost completely withered)) | 0 (Herbicidal ratio of 5% or less (almost no effect)) |
| C#CC[S+]([O-])c1nnc2c(C(=O)Nc3nnc(C)o3)ccc(C(F)(F)F)n12 (centres unmarked) [1-077] | 4 (Herbicidal ratio of 70% or more and less than 90%) | 5 (Herbicidal ratio of 90% or more (almost completely withered)) | 3 (Herbicidal ratio of 40% or more and less than 70%) | 0 (Herbicidal ratio of 5% or less (almost no effect)) | 2 (Herbicidal ratio of 20% or more and less than 40%) | 0 (Herbicidal ratio of 5% or less (almost no effect)) | 0 (Herbicidal ratio of 5% or less (almost no effect)) | 0 (Herbicidal ratio of 5% or less (almost no effect)) |
